Reference: patent US20160168140A1, “HETEROCYCLIC COMPOUNDS AS ANTIBIOTIC POTENTIATORS” (priority 2014, published 2016)
Where two headings read alike, the source gives them in different places.

How the values were obtained:
[1] = system: Acinetobacter baumannii (Ab23); test: MIC shift assay of antibiotics (broth microdilution); format: cell-based; details: for Colistin & Cmpd MIC shift / Colistin MIC with compound: compound at 10 μM; for colistin MIC shift, Ab23 at (compd concentration): fold shift of colistin MIC, nc = no changeover or no shift
How it was run: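 Broth microdilution MIC shift assay against Acinetobacter baumannii. Overnight cultures in cation-adjusted Mueller Hinton broth at 37° C. were sub-cultured 1:200, grown to OD600=0.5 to 0.8, diluted to OD600=0.01, and added (50 μL) to wells holding 50 μL of 2× antibiotic stocks for a starting OD600 of 0.005. After 18 to 20 h at 37° C. with shaking, OD600 was read to obtain MICs.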

E. coli RecA = molecular target: T1, E. coli RecA (Escherichia coli, UniProt P0A7G6); test: RecA ssDNA-dependent ATPase assay (coupled enzyme, amplex red fluorescence); format: biochemical; details: read-out: RecA Inhibition IC50
T1 construct: purchased New England BioLabs
T1 sequence (P0A7G6 2-353): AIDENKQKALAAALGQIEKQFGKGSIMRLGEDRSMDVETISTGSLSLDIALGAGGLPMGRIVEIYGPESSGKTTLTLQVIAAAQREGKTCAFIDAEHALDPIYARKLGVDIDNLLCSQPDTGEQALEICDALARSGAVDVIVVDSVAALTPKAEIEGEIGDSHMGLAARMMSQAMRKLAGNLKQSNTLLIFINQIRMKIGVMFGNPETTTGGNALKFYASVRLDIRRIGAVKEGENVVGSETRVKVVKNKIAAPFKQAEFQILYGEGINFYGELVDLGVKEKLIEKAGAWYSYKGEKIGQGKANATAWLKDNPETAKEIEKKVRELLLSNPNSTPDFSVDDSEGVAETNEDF
Experimental: A coupled enzyme ATPase assay, similar to that described in Wigle and Singleton, BioorgMed Chem Lett. 17(12):3249-53 (2007), was used to screen compounds for in vitro activity against RecA. A solution of the compound to be tested dissolved in DMSO (5 μL of 20× concentrated stock) was added to 90 μL of a master mix containing the following components at their final concentrations in the appropriate wells of flat-bottomed black 96-well plates (Corning Life Sciences, Corning N.Y.) at 37° C.: 0.5 μM E. coli RecA (New England BioLabs), 10 mM Mg(OAc)2 (Sigma, St. Louis, Mo.), 500 μM ATP (Sigma), 250 μM phosphoenolpyruvate (Sigma), 100 μM amplex red (Invitrogen, Carlsbad, Calif.), 1 U/mL pyruvate kinase (Sigma), 1 U/mL pyruvate oxidase (Thermo Fisher Scientific, Waltham, Mass.), 1 U/mL horseradish peroxidase (Sigma), and 20 mM Tris*HOAc, pH 7.5 (Boston BioProducts, Ashland, Mass.). The total volume of the assay solution was 100 μL. […]
The fluorescence emission at 595 nm (excitation at 485 nm) was then recorded using a microplate reader (PolarStar Optima, BMG Labtech, Ortenberg, Germany) for approximately 25 min to establish the baseline fluorescence.
To initiate the reactions, poly(dT) (5 μL of a 100 μM-nts stock solution) was added to each well to give a final DNA concentration of 5 μM-nts. Fluorescence emission was recorded for an additional 90 min. […]

E. coli = test: MIC shift assay of antibiotics (broth microdilution); format: cell-based; details: for Colistin MIC Shift: E. coli (SCR1)
Experimental: (§1) Minimum inhibitory concentration (MIC) shift assays were performed to determine if the test compounds could alter the MIC of existing antibacterial drugs (e.g., ciprofloxacin and colistin) for E. coli, Acinetobacter baumannii, Klebsiella pneumoniae, Pseudomonas aeruginosa, and Enterobacter cloacae. The MIC shift assay is based on the standard broth microdilution MIC determination protocol of Wiegand et al, Nat Protoc. 3(2):163-75 (2008), with slight modifications that allow for the screening of up to seven test compounds in a single plate.
(§2) On the day before an assay, bacteria were grown overnight in cation-adjusted Mueller Hinton broth (CAMHB; Teknova, Hollister, Calif.) at 37° C. in an orbital shaker and sub-cultured at a 1:200 dilution the following morning. The cells were grown to OD600=0.5 to 0.8 and then diluted to OD600=0.01. From a serial dilution of each antibiotic at (50 μL of 2× concentrated stock solutions) several concentrations were added to the wells of a sterile, transparent round-bottom 96-well plate (Phenix Research Products, Candler, N.C.), and diluted cells (50 μL) were added to the plates for a starting OD600 of 0.005. Then, a test compound (2.5 μL) was added to each well to give a final concentration of 4 or 10 μM. A row of wells lacking test compound but containing the antibiotic was used to determine the MIC of that antibiotic alone. A column of wells lacking both antibiotic and test compound served as a growth control, and an additional column containing only CAMHB was included as a sterile blank control.
(§3) The plates were incubated for 18 to 20 h at 37° C. in an orbital shaker, and the cell density (OD600) was determined the following day in a microplate reader (PolarStar Optima, BMG Labtech). The MIC shift was determined by comparing the MIC of the antibiotic alone to the MIC of the antibiotic plus test compound.

[2] = system: SOS response (sulAp-lacZ reporter) in E. coli strain DM4000; test: Ciprofloxacin-induced SOS reporter gene expression assay (sulAp-lacZ, Beta-Glo luminescence, with or without PMBN); format: cell-based; details: Escherichia coli; in the presence of PMBN (4 μg/mL); read-out: SOS Attenuation EC50
Excerpt: An SOS reporter gene assay was used to assess the ability of the RecA inhibitor compounds to block the SOS response to ciprofloxacin. Details of the testing methodology are provided in, for example, Sandler et al., Genetics 143(1):5-13 (1996) and McCool et al., Mol Microbiol. 53(5):1343-57 (2004). The SOS genes are regulated by the transcriptional repressor LexA and the DNA-binding protein RecA. When DNA damage occurs, RecA binds to ssDNA, and this protein-DNA complex then induces the autocleavage of LexA, resulting in the depression of LexA-bound promoters. […] Therefore, a reporter construct wherein the sulA promoter (sulAp) is fused to the lacZ gene can be used to measure the level of the SOS response in cells using an assay for β-galactosidase activity.
E. coli strain DM4000 contains the sulAp-lacZ reporter gene inserted at the X attachment site. Two additional strains containing the same sulAp-lacZ reporter gene were used as RecA-independent controls in this assay. JC19098 encodes an un-cleaveable LexA repressor; therefore, the sulA promoter-dependent β-galactosidase expression is always off. […]
Luminescence was measured on a plate reader with the gain adjustment set to 40% of the maximum on a well with one of the highest luminescence values on the plate (e.g., a well containing ciprofloxacin without inhibitor). […]

Staphylococcus aureus = test: Colistin MIC / MIC shift with compound at 10 μM (isolate panel, Table 19); format: cell-based; details: for Colistin & Cmpd MIC shift / Colistin MIC with compound: compound at 10 μM
Burkholderia cepacia = test: as above; format: cell-based; details: Burkholderia cepacia 547, Colistin-R
Providencia stuartii = test: as above; format: cell-based; details: Providencia stuartii 6644, Colistin-R
Proteus vulgaris = test: as above; format: cell-based; details: Proteus vulgaris 6240, Colistin-R
Serratia marcescens = test: as above; format: cell-based; details: Serratia marcescens 6147, Colistin-R
Klebsiella pneumoniae = test: MIC shift assay of antibiotics (broth microdilution); format: cell-based; details: for Colistin & Cmpd MIC shift / Colistin MIC with compound: compound at 10 μM
Experimental: as §1, §2, §3

Pseudomonas aeruginosa = test: as above; format: cell-based; details: for Colistin & Cmpd MIC shift / Colistin MIC with compound: compound at 10 μM
Experimental: as §1, §2, §3

[3] = Acinetobacter baumannii (Ab23), compound concentration 10 μM, MIC of colistin alone >8.0 μg/mL
[4] = compound concentration 10 μM, MIC of colistin alone 0.5-1.0 μg/mL
[5] = Staphylococcus aureus ATCC 43300 (MMX 5999), MRSA
[6] = Acinetobacter baumannii ATCC 19606 (MMX 1630), Colistin-S
[7] = Acinetobacter baumannii Ab23, Colistin-R
[8] = Klebsiella pneumoniae 2237, Colistin-R
[9] = Klebsiella pneumoniae ATCC 13883 (MMX 214), Colistin-S
[10] = Escherichia coli ATCC 25922 (MMX 102), QC, Colistin-S, compound at 10 μM
[11] = Pseudomonas aeruginosa 1582, Colistin-I
[12] = Pseudomonas aeruginosa 6977, Colistin-R
[13] = Pseudomonas aeruginosa ATCC 27853 (MMX 103), QC, Colistin-S

For CN(C)CCCNc1nc(/C=C/c2ccc(Cl)c(Cl)c2)nc2c(C(F)(F)F)cccc12 [MLJ-02-070A], the “Colistin MIC Shift” value [1, 3] was greater than 128X, the IC50 (E. coli RecA) was 12 µM and the “Colistin MIC Shift” value (E. coli; [4]) was 16-32X. For the same molecule, the EC50 [2] was less than 6 µM.

With Clc1ccc(/C=C/c2c[nH]c3ccc(Br)cc23)cc1Cl [MLJ-02-086B] the “Colistin MIC Shift” value [1, 3] was greater than 64X, the IC50 (E. coli RecA) was 15 µM and the “Colistin MIC Shift” value (E. coli; [4]) was 8-16X. The EC50 [2] was 8 µM.

In the case of Clc1ccc2[nH]cc(-c3ccc(Cl)c(Cl)c3)c2c1 [compound 429], the “MIC, agent alone” value (Staphylococcus aureus) is reported as 2 mg/L, the “MIC, agent alone” value (Staphylococcus aureus; [5]) is reported as 2 mg/L and the “Colistin & Cmpd MIC shift” value (Staphylococcus aureus; [5]) is reported as 4267. For the same molecule, the “Colistin MIC with compound” value (Staphylococcus aureus; [5]) was no more than 0.015 mg/L, the “Colistin & Cmpd MIC shift” value (Staphylococcus aureus) was 4267 and the “Colistin MIC with compound” value (Staphylococcus aureus) was no more than 0.015 mg/L. The “MIC, agent alone” value (Burkholderia cepacia) was greater than 32 mg/L, the “Colistin & Cmpd MIC shift” value (Burkholderia cepacia; compound at 10 μM) was 4 and the “Colistin MIC with compound” value (Burkholderia cepacia; compound at 10 μM) was greater than 16 mg/L. The “MIC, agent alone” value (Providencia stuartii) was greater than 32 mg/L, the “Colistin & Cmpd MIC shift” value (Providencia stuartii; compound at 10 μM) was 4 and the “Colistin MIC with compound” value (Providencia stuartii; compound at 10 μM) was 16 mg/L. For the same molecule, the “Colistin MIC Shift” value ([1]; A. baumannii (MDR Ab), compd. concentration 4.0 μM, colistin MIC 0.5-1.0 μg/mL) was 2x, the “MIC, agent alone” value [1, 6] was greater than 32 mg/L and the “Colistin & Cmpd MIC shift” value [1, 6] was 8. The “Colistin MIC with compound” value [1, 6] was 0.03 mg/L, the “MIC, agent alone” value [1, 7] was greater than 32 mg/L and the “Colistin & Cmpd MIC shift” value [1, 7] was 2133. The “Colistin MIC with compound” value [1, 7] was 0.03 mg/L, the “MIC Shift of Ciprofloxacin” value ([1]; Compd. No. 429 concentration 8 μM, antibiotic Ciprofloxacin, A. baumannii (Ab23)) was “≧32x” and the “MIC Shift of Levofloxacin” value ([1]; Compd. No. 429 concentration 8 μM, antibiotic Levofloxacin, A. baumannii (Ab23)) was “≧64x”. The “MIC Shift of Meropenem” value ([1]; Compd. No. 429 concentration 8 μM, antibiotic Meropenem, A. baumannii (Ab23)) was “≧16x”, the “MIC Shift of Tobramycin” value ([1]; Compd. No. 429 concentration 8 μM, antibiotic Tobramycin, A. baumannii (Ab23)) was “≧16x” and the “colistin MIC shift, Ab23 at (compd concentration)” value ([1]; compound concentration 1 μM) was 4x (1 μM);. The “colistin MIC shift, Ab23 at (compd concentration)” value ([1]; compound concentration 2 μM) was “≧16x (2μM)”, the “MIC, agent alone” value (Proteus vulgaris) was greater than 32 mg/L and the “Colistin & Cmpd MIC shift” value (Proteus vulgaris; compound at 10 μM) was 1067. For the same molecule, the “Colistin MIC with compound” value (Proteus vulgaris; compound at 10 μM) was 0.06 mg/L, the “MIC, agent alone” value (Serratia marcescens) was greater than 32 mg/L and the “Colistin & Cmpd MIC shift” value (Serratia marcescens; compound at 10 μM) was 256. The “Colistin MIC with compound” value (Serratia marcescens; compound at 10 μM) was 0.25 mg/L, the “MIC, agent alone” value (Klebsiella pneumoniae; [8]) was greater than 32 mg/L and the “Colistin & Cmpd MIC shift” value (Klebsiella pneumoniae; [8]) was 128. The “Colistin MIC with compound” value (Klebsiella pneumoniae; [8]) was 0.25 mg/L, the “MIC, agent alone” value (Klebsiella pneumoniae; [9]) was greater than 32 mg/L and the “Colistin & Cmpd MIC shift” value (Klebsiella pneumoniae; [9]) was 4. The “Colistin MIC with compound” value (Klebsiella pneumoniae; [9]) was 0.03 mg/L, the “Colistin MIC Shift” value (E. coli; compd. concentration 4.0 μM, colistin MIC 0.5-1.0 μg/mL) was 4x and the “MIC, agent alone” value (E. coli; Escherichia coli ATCC 25922 (MMX 102), QC, Colistin-S) was greater than 32 mg/L. For the same molecule, the “Colistin & Cmpd MIC shift” value (E. coli; [10]) was 8, the “Colistin MIC with compound” value (E. coli; [10]) was 0.015 mg/L and the “MIC, agent alone” value (Pseudomonas aeruginosa; [11]) was greater than 32 mg/L. For the same molecule, the “Colistin & Cmpd MIC shift” value (Pseudomonas aeruginosa; [11]) was 16, the “Colistin MIC with compound” value (Pseudomonas aeruginosa; [11]) was 0.25 mg/L and the “MIC, agent alone” value (Pseudomonas aeruginosa; [12]) was greater than 32 mg/L. The “Colistin & Cmpd MIC shift” value (Pseudomonas aeruginosa; [12]) was 64, the “Colistin MIC with compound” value (Pseudomonas aeruginosa; [12]) was 1 mg/L and the “MIC, agent alone” value (Pseudomonas aeruginosa; [13]) was greater than 32 mg/L. For the same molecule, the “Colistin & Cmpd MIC shift” value (Pseudomonas aeruginosa; [13]) was 2 and the “Colistin MIC with compound” value (Pseudomonas aeruginosa; [13]) was 0.12 mg/L.
